# Target: T1, soluble guanylate cyclase (sGC) (Homo sapiens, UniProt Q02108+Q02153)
# T1 construct: endogenously expressing soluble guanylate cyclase (sGC); endogenous in cells; host or cells: HEK293
# T1 sequence (Q02153 1-619): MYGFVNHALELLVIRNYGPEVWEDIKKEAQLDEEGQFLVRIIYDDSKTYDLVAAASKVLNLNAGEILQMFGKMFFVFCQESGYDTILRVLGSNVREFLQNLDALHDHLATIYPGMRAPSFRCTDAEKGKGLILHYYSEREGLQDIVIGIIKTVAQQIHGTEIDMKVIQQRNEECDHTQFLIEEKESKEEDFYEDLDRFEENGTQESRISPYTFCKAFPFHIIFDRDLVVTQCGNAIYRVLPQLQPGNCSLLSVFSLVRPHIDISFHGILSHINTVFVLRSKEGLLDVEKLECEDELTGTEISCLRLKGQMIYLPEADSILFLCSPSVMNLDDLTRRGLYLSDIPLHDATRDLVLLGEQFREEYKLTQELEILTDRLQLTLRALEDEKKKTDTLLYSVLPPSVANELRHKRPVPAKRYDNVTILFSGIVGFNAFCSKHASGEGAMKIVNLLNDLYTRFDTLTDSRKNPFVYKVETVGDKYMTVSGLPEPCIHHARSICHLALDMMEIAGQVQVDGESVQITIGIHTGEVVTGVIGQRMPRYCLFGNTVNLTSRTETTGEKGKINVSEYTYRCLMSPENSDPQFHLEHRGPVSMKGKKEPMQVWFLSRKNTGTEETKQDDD
# T1 sequence (Q02108 1-690): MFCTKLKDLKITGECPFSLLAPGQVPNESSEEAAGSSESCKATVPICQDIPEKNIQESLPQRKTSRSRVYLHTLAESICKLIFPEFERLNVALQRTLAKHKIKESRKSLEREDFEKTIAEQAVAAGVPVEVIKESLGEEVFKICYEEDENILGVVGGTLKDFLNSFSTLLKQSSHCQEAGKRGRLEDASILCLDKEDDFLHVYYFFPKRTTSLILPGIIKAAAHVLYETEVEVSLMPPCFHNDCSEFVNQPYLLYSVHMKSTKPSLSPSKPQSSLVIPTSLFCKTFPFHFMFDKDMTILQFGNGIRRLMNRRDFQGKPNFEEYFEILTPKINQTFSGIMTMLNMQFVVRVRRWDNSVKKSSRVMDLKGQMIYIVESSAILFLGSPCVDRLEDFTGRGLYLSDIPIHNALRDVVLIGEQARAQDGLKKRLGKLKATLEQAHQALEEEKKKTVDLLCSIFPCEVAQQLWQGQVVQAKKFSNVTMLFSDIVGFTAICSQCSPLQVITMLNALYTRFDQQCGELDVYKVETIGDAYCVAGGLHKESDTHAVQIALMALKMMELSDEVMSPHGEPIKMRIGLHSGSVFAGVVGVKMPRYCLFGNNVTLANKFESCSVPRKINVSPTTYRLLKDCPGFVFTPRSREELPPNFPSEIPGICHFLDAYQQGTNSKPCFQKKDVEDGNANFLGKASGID
# Assay: sGC-HEK-cGMP assay with LC/MS detection
# Assay type: cell-based
# Settings: HEK293 whole cells, LC/MS detection of cGMP, 10 μM DETA-NONOate; 50% of high control response (30 μM Compound Y); read-out: Absolute EC50 (nM)- binned (~)
row,EC50,SMILES
1,100 to 1000 nM,COC1CCN(c2nc(-c3cc(C(C)=O)n(Cc4ccccc4F)n3)ncc2F)C1 (stereo not drawn) [Compound 80]
2,100 to 1000 nM,"CC(=O)c1cc(-c2ncc(F)c(N[C@@H]3CCCC[C@H]3C(=O)O)n2)nn1Cc1ccccc1F [Compound 137, (1R,2R)-2-((2-(5-acetyl-1-(2-fluorobenzyl)-1H-pyrazol-3-yl)-5-fluoropyrimidin-4-yl)amino)cyclohex anecarboxylic acid]"
3,> 1000 nM,CC(=O)c1cc(-c2ncc(F)c(NCC(C)(O)C(N)=O)n2)nn1Cc1ccccc1F (stereo not drawn) [Compound 193]
4,> 1000 nM,CC(=O)c1cc(-c2ncc(F)c(N3CCCS3(=O)=O)n2)nn1Cc1ccccc1F [Compound 119]
5,100 to 1000 nM,CC(=O)c1cc(-c2ncc(F)c(N3CCC(O)C(CO)C3)n2)nn1Cc1ccccc1F (stereo not drawn) [Compound 117]
6,> 30000 nM,CC(=O)c1cc(-c2ncc(F)c(N3CCN(S(C)(=O)=O)CC3)n2)nn1Cc1ccccc1F [Compound 120]
7,100 to 1000 nM,CC(=O)c1cc(-c2ncc(F)c(NCC(O)CO)n2)nn1Cc1ccccc1F (stereo not drawn) [Compound 180]
8,100 to 1000 nM,CC(=O)c1cc(-c2ncc(F)c(N3CC(C)C(C(=O)O)C3)n2)nn1Cc1ccccc1F (stereo not drawn) [Compound 89]
9,> 1000 nM,CC(=O)c1cc(-c2ncc(F)c(N3CC4(COC4)C3)n2)nn1Cc1ccccc1F [Compound 118]
10,> 1000 nM,CC(=O)c1cc(-c2ncc(F)c(N3CC(NC(=O)C4(O)CC4)C3)n2)nn1Cc1ccccc1F [Compound 122]
11,> 1000 nM,CC(=O)c1cc(-c2ncc(F)c(NCCO)n2)nn1Cc1ccccc1F [Compound 125]
12,100 to 1000 nM,CC(=O)c1cc(-c2ncc(F)c(N3CCC4(CC3)COC4)n2)nn1Cc1ccccc1F [Compound 113]
13,100 to 1000 nM,"CC(=O)c1cc(-c2ncc(F)c(N3CC(C(=O)O)C(C)(C)C3)n2)nn1Cc1ccccc1F (stereo not drawn) [Compound 136, 1-(2-(5-acetyl-1-(2-fluorobenzyl)-1H-pyrazol-3-yl)-5-fluoropyrimidin-4-yl)-4,4-dimethylpyrrolidine-3-carboxylic acid]"
14,> 1000 nM,"CC(=O)c1cc(-c2ncc(F)c(N[C@@H](CO)C(N)=O)n2)nn1Cc1ccccc1F [Compound 194, (S)-2-((2-(5-acetyl-1-(2-fluorobenzyl)-1H-pyrazol-3-yl)-5-fluoropyrimidin-4-yl)amino)-3-hydroxypropanamide]"
15,100 to 1000 nM,CC(=O)c1cc(-c2ncc(F)c(N(C)C)n2)nn1Cc1ccccc1F [Compound 91]
16,100 to 1000 nM,CC(=O)c1cc(-c2ncc(F)c(NC3CCCCC3C(=O)O)n2)nn1Cc1ccccc1F (stereo not drawn) [Compound 123]

# The remaining lines, values behind:
row,SMILES,EC50
1,NC(=O)C1CCN(c2nc(-c3cc(-c4ccon4)n(Cc4ccccc4F)n3)ncc2F)CC1 [Compound 60],< 100 nM
2,CCC(C)(NC(=O)OCc1ccccc1)C(=O)Nc1ccnc(-c2cc(-c3ccon3)n(Cc3ccccc3F)n2)n1 (stereo not drawn) [Compound 46],> 1000 nM
3,OCCNc1cnc(-c2cc(-c3ccon3)n(Cc3ccccc3F)n2)nc1 [Compound 8],100 to 1000 nM
4,Oc1ccc(Cn2nc(-c3ncc(F)c(NCC(O)(C(F)(F)F)C(F)(F)F)n3)cc2-c2ccon2)c(F)c1 [Compound 184],> 1000 nM
5,NC(=O)C(O)(CNc1nc(-n2cc(-c3ccon3)c(Cc3ccccc3F)n2)ncc1F)C(F)(F)F (stereo not drawn) [Compound 30],100 to 1000 nM
6,"CS(=O)(=O)Nc1ccc(CNc2nc(-c3cc(-c4ccon4)n(Cc4ccccc4F)n3)ncc2F)cc1O [Compound 161, N-(4-(((5-fluoro-2-(1-(2-fluorobenzyl)-5-(isoxazol-3-yl)-1H-pyrazol-3-yl)pyrimidin-4-yl)amino)methyl)-2-hydroxyphenyl)methanesulfonamide]",100 to 1000 nM
7,CCC(C)(N)C(=O)Nc1ccnc(-c2cc(-c3ccon3)n(Cc3ccccc3F)n2)n1 (stereo not drawn) [Compound 47],100 to 1000 nM
8,"O=C(Nc1nc(-c2cc(-c3ccon3)n(Cc3ccccc3F)n2)ncc1F)OCCN1CCOCC1 [Compound 158, 2-morpholinoethyl (5-fluoro-2-(1-(2-fluorobenzyl)-5-(isoxazol-3-yl)-1H-pyrazol-3-yl)pyrimidin-4-yl)carbamate]",> 1000 nM
9,"CC(C)[C@H](CO)Nc1nc(-c2cc(-c3ccon3)n(Cc3ccccc3F)n2)ncc1F [Compound 148, (R)-2-((5-fluoro-2-(1-(2-fluorobenzyl)-5-(isoxazol-3-yl)-1H-pyrazol-3-yl)pyrimidin-4-yl)amino)-3-methylbutan-1-ol]",< 100 nM
10,CC(C(N)=O)C(=O)Nc1ccnc(-c2cc(-c3ccon3)n(Cc3ccccc3F)n2)n1 (stereo not drawn) [Compound 35],> 1000 nM
11,NC(=O)CNc1cnc(-c2cc(-c3ccon3)n(Cc3ccccc3F)n2)nc1 [Compound 6],> 1000 nM
12,COCc1cc(-c2ncc(F)c(O)n2)nn1Cc1ccccc1F [Compound 105],> 30000 nM
13,CC1(C(=O)Nc2ccnc(-c3cc(-c4ccon4)n(Cc4ccccc4F)n3)n2)CCNC1=O (stereo not drawn) [Compound 59],100 to 1000 nM
14,CC(=O)c1cc(-c2ncc(F)c(NCc3cc(=O)[nH]o3)n2)nn1Cc1ccccc1F [Compound 70],100 to 1000 nM
15,CNc1cc(-c2ncc(F)c(O)n2)nn1Cc1ccccc1F [Compound 1],> 1000 nM
16,O=C(NNC(=O)C(F)(F)F)Nc1nc(-c2cc(-c3ccon3)n(Cc3ccccc3F)n2)ncc1F [Compound 13],> 1000 nM

row,SMILES,EC50
1,NC(=O)c1nnc2n1CCN(c1nc(-c3cc(-c4ccon4)n(Cc4ccccc4F)n3)ncc1F)C2 [Compound 54],< 100 nM
2,"CC(=O)c1cc(-c2ncc(F)c(N[C@@H](CC(=O)O)C(C)C)n2)nn1Cc1ccccc1F [Compound 138, (S)-3-((2-(5-acetyl-1-(2-fluorobenzyl)-1H-pyrazol-3-yl)-5-fluoropyrimidin-4-yl)amino)-4-methylpentanoic acid]",100 to 1000 nM
3,CC(N)(CNc1nc(-c2cc(-c3ccon3)n(Cc3ccccc3F)n2)ncc1F)C1CC1 (stereo not drawn) [Compound 67],100 to 1000 nM
4,Cc1nnc(C(O)(CNc2nc(-c3cc(-c4ccon4)n(Cc4ccccc4F)n3)ncc2F)C(F)(F)F)o1 (stereo not drawn) [Compound 52],< 100 nM
5,NC(=O)C(O)(CNc1nc(-c2cc(-c3ncco3)n(Cc3ccccc3F)n2)ncc1F)C(F)(F)F (stereo not drawn) [Compound 102],100 to 1000 nM
6,"COC(=O)CCNc1nc(-c2cc(-c3ccon3)n(Cc3ccccc3F)n2)ncc1F [Compound 163, methyl 3-((5-fluoro-2-(1-(2-fluorobenzyl)-5-(isoxazol-3-yl)-1H-pyrazol-3-yl)pyrimidin-4-yl)amino)propanoate]",< 100 nM
7,CC(O)(C(N)=O)C(=O)Nc1ccnc(-c2cc(-c3ccon3)n(Cc3ccccc3F)n2)n1 (stereo not drawn) [Compound 36],100 to 1000 nM
8,Fc1ccccc1Cn1nc(-c2ncc(F)c(N3CCCO3)n2)cc1-c1ccon1 [Compound 16],100 to 1000 nM
9,NC(=O)[C@](O)(CNc1nc(-c2cc(-c3ccon3)n(Cc3ccc(O)cc3F)n2)ncc1F)C(F)(F)F [Compound 195],> 1000 nM
10,CC(C)(N)C(=O)Nc1ccnc(-c2cc(-c3ccon3)n(Cc3ccccc3F)n2)n1 [Compound 33],> 1000 nM
11,O=C(OCCNc1nc(-c2cc(-c3ccon3)n(Cc3ccccc3F)n2)ncc1F)C1CCCCN1 (stereo not drawn) [Compound 202],100 to 1000 nM
12,CC(C)(C(N)=O)C(=O)Nc1nc(-c2cc(-c3ccon3)n(Cc3ccccc3F)n2)ncc1F [Compound 48],> 1000 nM
13,C[C@@](CNc1nc(-c2cc(-c3ccon3)n(Cc3ccccc3F)n2)ncc1F)(N[C@@H](CO)c1ccccc1)C(F)(F)F [Compound 107],< 100 nM
14,Cn1ccnc1C(O)(CNc1nc(-c2cc(-c3ccon3)n(Cc3ccccc3F)n2)ncc1F)C(F)(F)F (stereo not drawn) [Compound 64],100 to 1000 nM
15,"CSCC[C@H](CO)Nc1nc(-c2cc(-c3ccon3)n(Cc3ccccc3F)n2)ncc1F [Compound 150, (R)-2-((5-fluoro-2-(1-(2-fluorobenzyl)-5-(isoxazol-3-yl)-1H-pyrazol-3-yl)pyrimidin-4-yl)amino)-4-(methylthio)butan-1-ol]",< 100 nM
16,"OCC(CCCC(F)(F)F)Nc1nc(-c2cc(-c3ccon3)n(Cc3ccccc3F)n2)ncc1F (stereo not drawn) [Compound 127, 6,6,6-trifluoro-2-((5-fluoro-2-(1-(2-fluorobenzyl)-5-(isoxazol-3-yl)-1H-pyrazol-3-yl)pyrimidin-4-yl)amino)hexan-1-ol]",< 100 nM

# — patent publication US20190284168A1, “PYRAZOLE DERIVATIES AS SGC STIMULATORS” (IRONWOOD PHARMACEUTICALS, INC., priority 2014, published 2019)
